Target: T1, ΔF508-CFTR (Homo sapiens, UniProt P13569, DEL508-508)
T1 construct: expressed in transfected cells
Experiment: Membrane potential optical (FRET/VIPR) assay, identification of potentiator compounds
Type: cell-based
Details: Table 3, assay not given; for % Activity: relative efficacy
Source text: I) Membrane Potential Optical Methods for Assaying ΔF508-CFTR Modulation Properties of Compounds The optical membrane potential assay utilized voltage-sensitive FRET sensors described by Gonzalez and Tsien (See, Gonzalez, J. E. and R. Y. Tsien (1995) “Voltage sensing by fluorescence resonance energy transfer in single cells” Biophys J 69(4): 1272-80, and Gonzalez, J. E. and R. Y. Tsien (1997) “Improved indicators of cell membrane potential that use fluorescence resonance energy transfer” Chem Biol 4(4): 269-77) in combination with instrumentation for measuring fluorescence changes such as the Voltage/Ion Probe Reader (VIPR) (See, […]. Oades, et al. (1999) “Cell-based assays and instrumentation for screening ion-channel targets” Drug Discov Today 4(9): 431-439). These voltage sensitive assays are based on the change in fluorescence resonant energy transfer (FRET) between the membrane-soluble, voltage-sensitive dye, DiSBAC2(3), and a fluorescent phospholipid, CC2-DMPE, which is attached to the outer leaflet of the plasma membrane and acts as a FRET donor. Changes in membrane potential (Vm) cause the negatively charged DiSBAC2(3) to redistribute across the plasma membrane and the amount of energy transfer from CC2-DMPE changes accordingly. The changes in fluorescence emission were monitored using VIPR which is an integrated liquid handler and fluorescent detector designed to conduct cell-based screens in 96- or 384-well microtiter plates. To identify potentiators of ΔF508-CFTR, a double-addition HTS assay format was developed. During the first addition, a Cl^--free medium with or without test compound was added to each well. […] (in mM) NaCl 160, KCl 4.5, CaCl2 2, MgCl2 1, HEPES 10, pH 7.4 with NaOH. • Chloride-free bath solution: Chloride salts in Bath Solution #1 are substituted with gluconate salts. • CC2-DMPE: Prepared as a 10 mM stock solution in DMSO and stored at -20° C. • DiSBAC2(3): Prepared as a 10 mM stock in DMSO and stored at -20° C. NIH3T3 mouse fibroblasts stably expressing ΔF508-CFTR are used for optical measurements of membrane potential. […] For all optical assays, the cells were seeded at 30,000/well in 384-well matrigel-coated plates and cultured for 2 hrs at 37° C. before culturing at 27° C. for 24 hrs. for the potentiator assay.

T1 sequence (P13569 with tags, fused parts or gaps DEL508-508): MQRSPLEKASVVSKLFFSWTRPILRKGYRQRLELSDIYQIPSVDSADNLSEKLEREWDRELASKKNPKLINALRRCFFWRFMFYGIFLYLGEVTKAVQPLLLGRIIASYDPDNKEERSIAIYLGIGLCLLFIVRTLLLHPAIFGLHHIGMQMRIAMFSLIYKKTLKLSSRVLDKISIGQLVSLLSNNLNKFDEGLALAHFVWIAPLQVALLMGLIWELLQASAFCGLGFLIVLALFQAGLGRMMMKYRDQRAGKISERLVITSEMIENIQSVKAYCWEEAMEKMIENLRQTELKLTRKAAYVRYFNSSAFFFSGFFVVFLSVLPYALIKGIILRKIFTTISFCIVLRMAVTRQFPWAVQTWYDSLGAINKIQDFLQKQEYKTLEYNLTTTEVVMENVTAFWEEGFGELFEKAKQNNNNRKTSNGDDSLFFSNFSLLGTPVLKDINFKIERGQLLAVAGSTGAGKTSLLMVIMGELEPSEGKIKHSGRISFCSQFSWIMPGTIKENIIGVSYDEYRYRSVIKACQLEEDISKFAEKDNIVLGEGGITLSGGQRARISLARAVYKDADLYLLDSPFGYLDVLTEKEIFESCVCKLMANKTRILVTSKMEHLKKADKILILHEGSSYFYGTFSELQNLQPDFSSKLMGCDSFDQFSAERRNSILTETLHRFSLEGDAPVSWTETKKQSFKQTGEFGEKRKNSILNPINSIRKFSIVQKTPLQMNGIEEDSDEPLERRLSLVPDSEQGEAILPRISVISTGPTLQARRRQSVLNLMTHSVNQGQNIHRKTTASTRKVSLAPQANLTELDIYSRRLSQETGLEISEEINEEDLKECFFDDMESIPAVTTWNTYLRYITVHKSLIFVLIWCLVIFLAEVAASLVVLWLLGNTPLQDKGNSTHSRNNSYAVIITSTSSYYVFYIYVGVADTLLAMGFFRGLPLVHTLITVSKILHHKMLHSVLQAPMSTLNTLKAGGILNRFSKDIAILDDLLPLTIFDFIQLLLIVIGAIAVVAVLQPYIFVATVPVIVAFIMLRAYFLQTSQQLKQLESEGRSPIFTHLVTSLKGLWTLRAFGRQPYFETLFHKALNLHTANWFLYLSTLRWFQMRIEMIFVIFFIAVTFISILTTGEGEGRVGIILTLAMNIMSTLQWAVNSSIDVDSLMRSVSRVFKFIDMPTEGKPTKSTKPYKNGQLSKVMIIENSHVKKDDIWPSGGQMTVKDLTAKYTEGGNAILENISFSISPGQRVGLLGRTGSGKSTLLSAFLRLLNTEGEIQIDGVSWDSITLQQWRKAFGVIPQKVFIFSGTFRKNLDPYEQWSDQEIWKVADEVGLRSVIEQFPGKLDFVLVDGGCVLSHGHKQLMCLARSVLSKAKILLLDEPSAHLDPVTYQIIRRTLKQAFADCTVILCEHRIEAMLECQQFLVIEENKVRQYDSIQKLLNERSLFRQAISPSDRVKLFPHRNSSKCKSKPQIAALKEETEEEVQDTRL

Row | SMILES | EC50 [µM] | % Activity
1 | O=C(Nc1ccc(C(F)(F)F)cc1Cl)c1c[nH]c2cccc(O)c2c1=O [Compound 635, N-[2-chloro-4-(trifluoromethyl)phenyl]-5-hydroxy-4-oxo-1H-quinoline-3-carboxamide] | < 10 | ++ (between 25% to 100%)
2 | Cc1cccc2[nH]cc(C(=O)Nc3ccc(OC4CCCC4)cc3C(F)(F)F)c(=O)c12 [Compound 595, N-[4-cyclopentoxy-2-(trifluoromethyl)phenyl]-5-methyl-4-oxo-1H-quinoline-3-carboxamide] | < 10 | ++ (between 25% to 100%)
3 | O=C(Nc1ccc(-c2ccccc2)cc1)c1c[nH]c2ccccc2c1=O [Compound 397, 4-oxo-N-(4-phenylphenyl)-1H-quinoline-3-carboxamide] | < 10 | ++ (between 25% to 100%)
4 | CCOC(=O)Nc1ccc(C(C)C)c(NC(=O)c2c[nH]c3ccccc3c2=O)c1 [Compound 269, [4-isopropyl-3-[(4-oxo-1H-quinolin-3-yl)carbonylamino]phenyl]aminoformic acid ethyl ester] | < 10 | ++ (between 25% to 100%)
5 | CCOC(=O)Nc1cc(NC(=O)c2c[nH]c3ccccc3c2=O)ccc1CC [Compound 298, [2-ethyl-5-[(4-oxo-1H-quinolin-3-yl)carbonylamino]phenyl]aminoformic acid ethyl ester] | – | ++ (between 25% to 100%)
6 | CC(=O)Nc1cc(NC(=O)c2c[nH]c3ccccc3c2=O)ccc1C [Compound 248, N-(3-Acetylamino-4-methyl-phenyl)-4-oxo-1H-quinoline-3-carboxamide] | 10 to 25 | ++ (between 25% to 100%)
7 | O=C(Nc1cc2[nH]ccc2cc1-c1ccccc1)c1c[nH]c2ccccc2c1=O [Compound 158, 4-Oxo-N-(5-phenyl-1H-indol-6-yl)-1H-quinoline-3-carboxamide] | < 10 | ++ (between 25% to 100%)
8 | CCc1ccc(N)cc1NC(=O)c1c[nH]c2ccccc2c1=O [Compound 282, N-(5-amino-2-ethyl-phenyl)-4-oxo-1H-quinoline-3-carboxamide] | – | ++ (between 25% to 100%)
9 | Cc1cccc2[nH]cc(C(=O)Nc3ccc(N4[C@@H](C)CC[C@@H]4C)cc3C(F)(F)F)c(=O)c12 [Compound 516, N-(4-((2S,5S)-2,5-dimethylpyrrolidin-1-yl)-2-(trifluoromethyl)phenyl)-5-methyl-4-oxo-1,4-dihydroquinoline-3-carboxamide] | < 10 | ++ (between 25% to 100%)
10 | O=C(Nc1ccc2c(C3CCCC3)c[nH]c2c1)c1c[nH]c2ccccc2c1=O [Compound 186, N-(3-cyclopentyl-1H-indol-6-yl)-4-oxo-1H-quinoline-3-carboxamide] | < 10 | ++ (between 25% to 100%)
11 | CC(C)(C)c1cc(C(C)(C)C)c(NC(=O)c2c[nH]c3c(F)cccc3c2=O)cc1O [Compound 687, 8-fluoro-N-(5-hydroxy-2,4-ditert-butyl-phenyl)-4-oxo-1H-quinoline-3-carboxamide] | < 10 | ++ (between 25% to 100%)
12 | COC(=O)[C@@H]1[C@H]2C[C@H]2CN1c1ccc(NC(=O)c2c[nH]c3ccccc3c2=O)c(C(F)(F)F)c1 [Compound 531, (1S,2S,5R)-methyl 3-(4-(4-oxo-1,4-dihydroquinoline-3-carboxamido)-3-(trifluoromethyl)phenyl)-3-azabicyclo[3.1.0]hexane-2-carboxylate] | < 10 | ++ (between 25% to 100%)
13 | O=C(Nc1ccccc1-c1ccc(Oc2ccccc2)cc1)c1c[nH]c2ccccc2c1=O [Compound 410, 4-oxo-N-[2-(4-phenoxyphenyl)phenyl]-1H-quinoline-3-carboxamide] | < 10 | +++ (>100%)
14 | CC(C)c1ccc(NC(=O)c2c[nH]c3ccc(Cl)cc3c2=O)c(C(F)(F)F)c1 [Compound 657, 6-chloro-N-[4-isopropyl-2-(trifluoromethyl)phenyl]-4-oxo-1H-quinoline-3-carboxamide] | < 10 | ++ (between 25% to 100%)
15 | CCn1cc(C(=O)Nc2ccccc2)c(=O)c2cc(OC)ccc21 [Compound 480, 1-ethyl-6-methoxy-4-oxo-N-phenyl-1H-quinoline-3-carboxamide] | 25 to 60 | + (<25%)
16 | CC(=O)N1CCC2(CCN(C(=O)OC(C)(C)C)CC2)c2ccc(NC(=O)c3c[nH]c4ccccc4c3=O)cc21 [Compound 334, 7′-[(4-oxo-1H-quinolin-3-ylcarbonyl)amino]-spiro[piperidine-4,4′(1′H)-1-acetyl-quinoline], 2′,3′-dihydro-carboxylic acid tert-butyl ester] | 10 to 25 | ++ (between 25% to 100%)
17 | CC(C)(C)c1cc(C(C)(C)C)c(C(F)F)cc1NC(=O)c1c[nH]c2ccccc2c1=O [Compound 438, N-[5-(difluoromethyl)-2,4-ditert-butyl-phenyl]-4-oxo-1H-quinoline-3-carboxamide] | < 10 | ++ (between 25% to 100%)
18 | O=C(Nc1ccccc1Cl)c1c[nH]c2ccccc2c1=O [Compound 330, N-(2-chlorophenyl)-4-oxo-1H-quinoline-3-carboxamide] | < 10 | ++ (between 25% to 100%)
19 | COc1ccc2[nH]cc(C(=O)Nc3cc4[nH]ccc4cc3C(C)(C)C)c(=O)c2c1 [Compound 533, 6-methoxy-4-oxo-N-(5-tert-butyl-1H-indol-6-yl)-1H-quinoline-3-carboxamide] | < 10 | +++ (>100%)
20 | CN(C)c1ccc(-c2ccccc2NC(=O)c2c[nH]c3ccccc3c2=O)cc1 [Compound 12, N-[2-(4-dimethylaminophenyl)phenyl]-4-oxo-1H-quinoline-3-carboxamide] | < 10 | ++ (between 25% to 100%)
21 | N#CCc1ccc(-c2ccccc2NC(=O)c2c[nH]c3ccccc3c2=O)cc1 [Compound 333, N-[2-[4-(cyanomethyl)phenyl]phenyl]-4-oxo-1H-quinoline-3-carboxamide] | – | ++ (between 25% to 100%)
22 | O=C(Nc1ccccc1Oc1ccccc1)c1c[nH]c2ccccc2c1=O [Compound 413, 4-oxo-N-(2-phenoxyphenyl)-1H-quinoline-3-carboxamide] | < 10 | ++ (between 25% to 100%)
23 | CC(C)c1ccc(NC(=O)c2c[nH]c3ccc(F)cc3c2=O)cc1O [Compound 597, 6-fluoro-N-(3-hydroxy-4-isopropyl-phenyl)-4-oxo-1H-quinoline-3-carboxamide] | – | ++ (between 25% to 100%)
24 | O=C(Nc1ccc(C(F)(F)F)nc1)c1c[nH]c2ccccc2c1=O [Compound 197, 4-oxo-N-[6-(trifluoromethyl)-3-pyridyl]-1H-quinoline-3-carboxamide] | 25 to 60 | + (<25%)
25 | CCN(CC)c1ccc(NC(=O)c2c[nH]c3ccccc3c2=O)c(C)c1 [Compound 82, N-(4-diethylamino-2-methyl-phenyl)-4-oxo-1H-quinoline-3-carboxamide] | < 10 | ++ (between 25% to 100%)
26 | CCc1cccc(C(C)CC)c1NC(=O)c1c[nH]c2ccccc2c1=O (centres unmarked) [Compound 322, N-(2-ethyl-6-sec-butyl-phenyl)-4-oxo-1H-quinoline-3-carboxamide] | < 10 | ++ (between 25% to 100%)
27 | O=C(Nc1csc(C(F)(F)F)c1-c1ccccc1)c1c[nH]c2ccccc2c1=O [Compound 708, 4-oxo-N-[4-phenyl-5-(trifluoromethyl)-3-thienyl]-1H-quinoline-3-carboxamide] | < 10 | ++ (between 25% to 100%)
28 | CCCCOC(=O)NCC(C)(C)c1ccc(NC(=O)c2c[nH]c3ccccc3c2=O)cc1 [Compound 460, [2-methyl-2-[4-[(4-oxo-1H-quinolin-3-yl)carbonylamino]phenyl]-propyl]aminoformic acid butyl ester] | < 10 | ++ (between 25% to 100%)
29 | O=C(Nc1ccc2c(c1)CCO2)c1c[nH]c2ccccc2c1=O [Compound 467, N-(2,3-dihydrobenzofuran-5-yl)-4-oxo-1H-quinoline-3-carboxamide] | 25 to 60 | + (<25%)
30 | O=C(Nc1ccc(N2CCC[C@H]2CO)cc1C(F)(F)F)c1c[nH]c2ccccc2c1=O [Compound 634, (S)-N-(4-(2-(hydroxymethyl)pyrrolidin-1-yl)-2-(trifluoromethyl)phenyl)-4-oxo-1,4-dihydroquinoline-3-carboxamide] | < 10 | ++ (between 25% to 100%)
